For 36 molecules, IC50 results are on record in US10301280B2 (Plexxikon Inc., priority 2012, dated 2019).

Sequence of c-kit mutant D816V (P10721 other isoform, or with tags, fused parts or gaps D816V/del 694-753): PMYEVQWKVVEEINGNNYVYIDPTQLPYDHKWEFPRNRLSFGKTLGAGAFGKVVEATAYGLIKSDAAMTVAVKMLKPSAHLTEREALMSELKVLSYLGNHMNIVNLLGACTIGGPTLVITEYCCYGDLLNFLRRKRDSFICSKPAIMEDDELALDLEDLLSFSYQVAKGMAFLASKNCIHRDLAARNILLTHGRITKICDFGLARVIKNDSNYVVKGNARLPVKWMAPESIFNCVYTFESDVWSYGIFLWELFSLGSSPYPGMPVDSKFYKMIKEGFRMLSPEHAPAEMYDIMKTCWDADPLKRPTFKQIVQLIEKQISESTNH

The assay concerns the target c-kit mutant D816V (Homo sapiens (Human), UniProt P10721, D816V/DEL694-753). Kind of assay: c-Kit mutant D816V biochemical assay (AlphaScreen). The note with it: c-kit D816V biochemical inhibitory activity. The method in brief:
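His-tagged c-Kit D816V kinase domain (551-934, Δ694-753, E. coli) phosphorylating 30 nM biotin-(E4Y)10 at 10 μM ATP in HEPES pH 7.2 with Mg/Mn, 5% DMSO, 30 min at room temperature. PY20-acceptor/streptavidin-donor AlphaScreen detection after EDTA stop. IC50 from 8-point 1:3 titration.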
For orientation: Bead proximity is the source of the signal in Alpha formats.
In turn, `O=C(Nc1cnc2[nH]c(-c3ccccc3)cc2c1)c1ncccc1F` [P-2012, 3-fluoro-N-(2-phenyl-1H-pyrrolo[2,3-b]pyridin-5-yl)pyridine-2-carboxamide] showed an IC50 of 1 to 10 µM.

For `Cc1noc(C)c1C(=O)Nc1cnc2[nH]c(-c3ccccc3)cc2c1` [P-2013, 3,5-dimethyl-N-(2-phenyl-1H-pyrrolo[2,3-b]pyridin-5-yl)isoxazole-4-carboxamide], the IC50 is 10 to 200 µM. Next, `O=C(Nc1cnc2[nH]c(-c3ccccc3)cc2c1)c1cn[nH]n1` [P-2015, N-(2-phenyl-1H-pyrrolo[2,3-b]pyridin-5-yl)-2H-triazole-4-carboxamide]: 1 to 10 µM; `Cc1cccnc1C(=O)Nc1cnc2[nH]c(-c3ccccc3)cc2c1` [P-2016, 3-methyl-N-(2-phenyl-1H-pyrrolo[2,3-b]pyridin-5-yl)pyridine-2-carboxamide]: 1 to 10 µM.

For the molecule `Cc1cc(C(=O)Nc2cnc3[nH]c(-c4ccc(F)cc4)cc3c2)[nH]n1` [P-2019, N-[2-(4-fluorophenyl)-1H-pyrrolo[2,3-b]pyridin-5-yl]-3-methyl-1H-pyrazole-5-carboxamide], the IC50 lay within 0.0001 to 1 µM. The molecule `Cc1n[nH]c(C(=O)Nc2cnc3[nH]c(-c4ccc(F)cc4)cc3c2)c1Cl` [P-2023, 4-chloro-N-[2-(4-fluorophenyl)-1H-pyrrolo[2,3-b]pyridin-5-yl]-3-methyl-1H-pyrazole-5-carboxamide] came in with an IC50 of 0.0001 to 1 µM. Next, `Cc1n[nH]c(C(=O)Nc2cnc3[nH]c(-c4ccc(F)cc4)cc3c2)c1C` [P-2024, N-[2-(4-fluorophenyl)-1H-pyrrolo[2,3-b]pyridin-5-yl]-3,4-dimethyl-1H-pyrazole-5-carboxamide]: 0.0001 to 1 µM; `CC(=O)Nc1cccc(C(=O)Nc2cnc3[nH]c(-c4ccc(F)cc4)cc3c2)c1` [P-2026, 3-acetamido-N-[2-(4-fluorophenyl)-1H-pyrrolo[2,3-b]pyridin-5-yl]benzamide]: 10 to 200 µM. To `O=C(Nc1cnc2[nH]c(-c3ccc(F)cc3)cc2c1)c1cccc2n[nH]cc12` [P-2027, N-[2-(4-fluorophenyl)-1H-pyrrolo[2,3-b]pyridin-5-yl]-2H-indazole-4-carboxamide] belongs 1 to 10 µM. The molecule `Cc1c[nH]nc1C(=O)Nc1cnc2[nH]c(-c3ccc(F)cc3)cc2c1` [P-2029, N-[2-(4-fluorophenyl)-1H-pyrrolo[2,3-b]pyridin-5-yl]-4-methyl-1H-pyrazole-3-carboxamide] gave an IC50 of 0.0001 to 1 µM.

As for `CCn1nccc1S(=O)(=O)Nc1cnc2[nH]c(-c3ccc(F)cc3)cc2c1` [P-2030, 2-ethyl-N-[2-(4-fluorophenyl)-1H-pyrrolo[2,3-b]pyridin-5-yl]pyrazole-3-sulfonamide], the concentration for half-maximal inhibition (IC50) is 10 to 200 µM. To `Cc1cc(C(=O)Nc2cnc3[nH]c(C4=CCN(C(=O)N5CCOCC5)CC4)cc3c2)n[nH]1` [P-2031, 5-methyl-N-[2-[1-(morpholine-4-carbonyl)-3,6-dihydro-2H-pyridin-4-yl]-1H-pyrrolo[2,3-b]pyridin-5-yl]-1H-pyrazole-3-carboxamide] belongs 0.0001 to 1 µM. To `Cc1n[nH]c(C(=O)Nc2cnc3[nH]ccc3c2)c1C` [P-2032, 3,4-dimethyl-N-(1H-pyrrolo[2,3-b]pyridin-5-yl)-1H-pyrazole-5-carboxamide] belongs 1 to 10 µM. As to `Cc1n[nH]c(C(=O)Nc2cnc3c(c2)cc(C2=CCN(C(=O)N4CCOCC4)CC2)n3S(=O)(=O)c2ccccc2)c1C` [P-2033, N-[1-(benzenesulfonyl)-2-[1-(morpholine-4-carbonyl)-3,6-dihydro-2H-pyridin-4-yl]pyrrolo[2,3-b]pyridin-5-yl]-3,4-dimethyl-1H-pyrazole-5-carboxamide], the IC50 is 0.0001 to 1 µM.

For the molecule `Cc1n[nH]c(C(=O)Nc2cnc3[nH]c(C4=CCN(C(=O)N5CCOCC5)CC4)cc3c2)c1C` [P-2034, 3,4-dimethyl-N-[2-[1-(morpholine-4-carbonyl)-3,6-dihydro-2H-pyridin-4-yl]-1H-pyrrolo[2,3-b]pyridin-5-yl]-1H-pyrazole-5-carboxamide], the IC50 was in the range of 0.0001 to 1 µM. `Cc1n[nH]c(C(=O)Nc2cnc3[nH]c(C4=CCN(C(=O)N5CCOCC5)CC4)cc3c2)c1Cl` [P-2036, 4-chloro-3-methyl-N-[2-[1-(morpholine-4-carbonyl)-3,6-dihydro-2H-pyridin-4-yl]-1H-pyrrolo[2,3-b]pyridin-5-yl]-1H-pyrazole-5-carboxamide] yielded an IC50 of 0.0001 to 1 µM.

The molecule `Cc1n[nH]nc1C(=O)Nc1cnc2[nH]c(-c3ccc(F)cc3)cc2c1` [P-2037, N-[2-(4-fluorophenyl)-1H-pyrrolo[2,3-b]pyridin-5-yl]-5-methyl-2H-triazole-4-carboxamide] returned an IC50 of 0.0001 to 1 µM. To `Cc1nn(C)cc1-c1cc2cc(NC(=O)c3[nH]nc(C)c3C)cnc2[nH]1` [P-2038, N-[2-(1,3-dimethylpyrazol-4-yl)-1H-pyrrolo[2,3-b]pyridin-5-yl]-4,5-dimethyl-1H-pyrazole-3-carboxamide] belongs 0.0001 to 1 µM; to `Cc1[nH]nc(C(=O)Nc2cnc3[nH]c(C4=CCN(C(=O)C5CC5)CC4)cc3c2)c1Cl` [P-2039, 4-chloro-N-[2-[1-(cyclopropanecarbonyl)-3,6-dihydro-2H-pyridin-4-yl]-1H-pyrrolo[2,3-b]pyridin-5-yl]-5-methyl-1H-pyrazole-3-carboxamide], 0.0001 to 1 µM; to `Cc1n[nH]c(C(=O)Nc2cnc3[nH]nc(C)c3c2)c1C` [P-2040, 3,4-dimethyl-N-(3-methyl-1H-pyrazolo[3,4-b]pyridin-5-yl)-1H-pyrazole-5-carboxamide], 0.0001 to 1 µM. `Cc1cc(C(=O)Nc2cnc3[nH]c(C4=CCN(C(=O)C5CC5)CC4)cc3c2)n[nH]1` [P-2042, N-[2-[1-(cyclopropanecarbonyl)-3,6-dihydro-2H-pyridin-4-yl]-1H-pyrrolo[2,3-b]pyridin-5-yl]-5-methyl-1H-pyrazole-3-carboxamide] returned a concentration for half-maximal inhibition (IC50) of 0.0001 to 1 µM. The molecule `Cc1[nH]nc(C(=O)Nc2cnc3[nH]c(C4=CCN(C(=O)C5CC5)CC4)cc3c2)c1C` [P-2043, N-[2-[1-(cyclopropanecarbonyl)-3,6-dihydro-2H-pyridin-4-yl]-1H-pyrrolo[2,3-b]pyridin-5-yl]-4,5-dimethyl-1H-pyrazole-3-carboxamide] had an IC50 of 0.0001 to 1 µM. Next, `Cc1n[nH]c(C(=O)Nc2cnc(Nc3ccccc3)nc2)c1C` [P-2044, N-(2-anilinopyrimidin-5-yl)-3,4-dimethyl-1H-pyrazole-5-carboxamide]: 0.0001 to 1 µM. Next, `Cc1n[nH]c(C(=O)Nc2ccc(Nc3ccccc3)nc2)c1C` [P-2045, N-(6-anilino-3-pyridyl)-3,4-dimethyl-1H-pyrazole-5-carboxamide]: 0.0001 to 1 µM; `O=C(Nc1cnc2[nH]c(-c3ccc(F)cc3)cc2c1)c1n[nH]c2ccccc12` [P-2046, N-[2-(4-fluorophenyl)-1H-pyrrolo[2,3-b]pyridin-5-yl]-1H-indazole-3-carboxamide]: 0.0001 to 1 µM; `O=C(Nc1cnc2[nH]c(-c3ccc(F)cc3)cc2c1)c1n[nH]c2c1CCCC2` [P-2047, N-[2-(4-fluorophenyl)-1H-pyrrolo[2,3-b]pyridin-5-yl]-4,5,6,7-tetrahydro-1H-indazole-3-carboxamide]: 0.0001 to 1 µM.

In turn, `Cc1n[nH]c(C(=O)Nc2cnc3[nH]c(-c4cnn(C5CCNCC5)c4)cc3c2)c1C` [P-2048, 3,4-dimethyl-N-[2-[1-(4-piperidyl)pyrazol-4-yl]-1H-pyrrolo[2,3-b]pyridin-5-yl]-1H-pyrazole-5-carboxamide] registered an IC50 of 0.0001 to 1 µM. To `Cc1n[nH]c(C(=O)Nc2cnc3[nH]c(Cl)cc3c2)c1C` [P-2049, N-(2-chloro-1H-pyrrolo[2,3-b]pyridin-5-yl)-3,4-dimethyl-1H-pyrazole-5-carboxamide] belongs 0.0001 to 1 µM; to `CCNS(=O)(=O)c1cccc(Nc2ncc(NC(=O)c3[nH]nc(C)c3C)cn2)c1` [P-2050, N-[2-[3-(ethylsulfamoyl)anilino]pyrimidin-5-yl]-3,4-dimethyl-1H-pyrazole-5-carboxamide], 1 to 10 µM.

`Cc1n[nH]c(C(=O)Nc2cnc(Nc3cccc(N4CCOCC4)c3)nc2)c1C` [P-2051, 3,4-dimethyl-N-[2-(3-morpholinoanilino)pyrimidin-5-yl]-1H-pyrazole-5-carboxamide]: the 50% inhibitory concentration (IC50) was 0.0001 to 1 µM. The molecule `CCCS(=O)(=O)Nc1cccc(Nc2ncc(NC(=O)c3[nH]nc(C)c3C)cn2)c1` [P-2052, 3,4-dimethyl-N-[2-[3-(propylsulfonylamino)anilino]pyrimidin-5-yl]-1H-pyrazole-5-carboxamide] yielded an IC50 of 0.0001 to 1 µM. Next, `Cc1n[nH]c(C(=O)Nc2cnc(Nc3cccc(NS(=O)(=O)c4ccccc4)c3)nc2)c1C` [P-2053, N-[2-[3-(benzenesulfonamido)anilino]pyrimidin-5-yl]-3,4-dimethyl-1H-pyrazole-5-carboxamide]: 0.0001 to 1 µM. In the case of `CNC(=O)c1cccc(Nc2ncc(NC(=O)c3[nH]nc(C)c3C)cn2)c1` [P-2054, 3,4-dimethyl-N-[2-[3-(methylcarbamoyl)anilino]pyrimidin-5-yl]-1H-pyrazole-5-carboxamide], the IC50 is 0.0001 to 1 µM. Molecule `CCOC(=O)Nc1cccc(Nc2ncc(NC(=O)c3[nH]nc(C)c3C)cn2)c1` [P-2055, ethyl N-[3-[[5-[(3,4-dimethyl-1H-pyrazole-5-carbonyl)amino]pyrimidin-2-yl]amino]phenyl]carbamate] came in with an IC50 of 0.0001 to 1 µM.

`Cc1n[nH]c(C(=O)Nc2cnc3[nH]c(C4=CCN(S(C)(=O)=O)CC4)cc3c2)c1Cl` [P-2057, 4-chloro-3-methyl-N-[2-(1-methylsulfonyl-3,6-dihydro-2H-pyridin-4-yl)-1H-pyrrolo[2,3-b]pyridin-5-yl]-1H-pyrazole-5-carboxamide] displayed an IC50 of 0.0001 to 1 µM. For the molecule `Cc1cc(C(=O)Nc2cnc3[nH]c(N4CCOCC4)cc3c2)[nH]n1` [P-2058, 3-methyl-N-(2-morpholino-1H-pyrrolo[2,3-b]pyridin-5-yl)-1H-pyrazole-5-carboxamide], the IC50 was 0.0001 to 1 µM.

A word on the IC50: it is the concentration that gives 50% inhibition. A low value points to greater potency in that assay.
